# Data from publication PMC3519477, “Structures of the Human Poly (ADP-Ribose) Glycohydrolase Catalytic Domain Confirm Catalytic Mechanism and Explain Inhibition by ADP-HPD Derivatives” (PLoS ONE, 2012).
# Where two headings read alike, the source gives them in different places.
# What was measured:
# hPARG4 = target: T1, hPARG4 (Homo sapiens, UniProt Q86W56); assay: SPR competition experiments against saturating ADP-HPD; assay type: binding
# T1 construct: a codon optimized gene encoding human PARG(448–976) was synthesized by GeneArt; 6His (TEV-cleavable) (N, cleaved yes); made in house; host or cells: E. coli BL21 (DE3) GOLD
# Excerpt: The ADPR and ADP-HPD complex structures superpose almost exactly (r.m.s. deviation 0.14 Å over all Cα; 0.47 Å over all atoms within the binding pocket (MOE, Chemical Computing Group)). ADPR and ADP-HPD engage in equivalent interactions, with the exception of loss of an H-bond between the 1″-OH and Glu756 as this OH is not present in ADP-HPD. […] We speculate that the bound conformation of ADP-HPD is stabilised relative to ADPR by dipole-dipole interactions between the HPD NH2 ^+ and a negatively charged α-phosphate oxygen and/or the oxygen linking the β-phosphate to ribose” (4.1 Å and 2.9 Å separation respectively, Figure 4b). In addition, the α-phosphate oxygen H-bonding network may be strengthened in the ADP-HPD complex by the charged interaction with the pyrrolidine NH2 ^+. This oxygen accepts H-bonds from the backbone NH of Gln754 and a conserved water molecule, and is shielded from solvent by Val753. Binding of ADP-HPD is primarily enthalpy driven (Table 1).
# Studies of PARG inhibitor binding were conducted at 25°C. Samples were prepared as 5 fold dilutions in the experimental running buffer (20 mM HEPES pH 7, 150 mM NaCl, 2 mM DTT, 0.005% P20, 0.02% NaN3 with 5% DMSO). Surface regeneration was achieved using dissociation for a time period allowing the response to return to baseline. Control injections of a fixed, saturating ADP-HPD concentration of 20 µM were interspersed with injections of compound to allow monitoring of the functionality of the protein surface. To calculate affinities, SPR equilibrium binding data, consisting of Req values from 8–10 point concentration series, were analyzed by fitting a simple 1∶1 binding model to yield Rmax and Kd values using non-linear regression analysis in Grafit 6 (Erithacus Software).
# bPARG = target: bPARG; set-up: method as in PMID 7830282; settings: read-out: KD, reported value for bPARG; cited from earlier work
# TcPARG Glu114Ala mutant = system: TcPARG Glu114Ala mutant; set-up: method as in supplemental 4 (Slade et al., 2011); settings: ref supplemental 4 (Slade et al., 2011); cited from earlier work
# TcPARG Glu115Ala mutant = system: TcPARG Glu115Ala mutant; set-up: method as in supplemental 4 (Slade et al., 2011); settings: ref supplemental 4 (Slade et al., 2011); cited from earlier work
# [1] = target: T2, hPARG (full-length recombinant hPARG(1–976)-6His) (Homo sapiens, UniProt Q86W56); assay: PARG activity HTRF assay (PAR-PARP1 hydrolysis); assay type: biochemical
# T2 construct: direct expression of hPARG(1–976) with a C-terminal hexahistidine tag; made in house; host or cells: E. coli BL21 (DE3) GOLD
# Experimental: PARG activity was assessed using an HTRF assay which will be described in detail elsewhere (Bennett et al, manuscript in preparation). […] Following this incubation, biotinylated NAD^+ at a molar ratio to PARylated PARP1 of 0.7∶1 was added and incubation continued for 5 minutes. The reaction was terminated by addition of a PARP1-specific inhibitor to a final concentration of 4.7 µM. The solution was dialysed overnight to remove excess biotinylated NAD^+ and compound, and stored at −80°C. PARG activity was measured in a 384-well format HTRF assay using the biotin-labelled PARylated PARP1 as a substrate. Residual biotinylated PARylated PARP1 was detected by addition of a detection mix containing anti-6His–XL antibody (Cisbio) and streptavidin europium cryptate (Cisbio), and then monitoring the ratio of emission at 665 nm to 612 nm upon excitation at 340 nm.
# Inhibition by ADP-HPD was measured using serial dilutions over the range 100 µM to 100 pM compound from a 1 mM stock in water. Assays contained 30 pM purified recombinant PARG and 9.67 nM PAR-PARP1 in a final volume of 9 µL assay buffer (50 mM MOPS pH 7.4, 0.1 mg/mL BSA, 3 mM EDTA, 0.4 mM EGTA, 1 mM DTT, 0.01% v/v Tween20, 50 mM KCl). Reactions were allowed to proceed for 8 minutes prior to the addition of 3 µL detection reagents (50 mM MOPS pH 7.4, 0.1 mg/mL BSA, 0.1 M Potassium Fluoride, 14 nM anti-6HIS-XL antibody, 0.75 nM Streptavidin Europium Cryptate). IC50s were calculated using a time-point of 1.5 hours from the addition of detection reagents.
# Here, 17.5 nL of ADP-HPD ([…]) or OA-ADP-HPD (21.43 mM in DMSO) were dispensed by an ECHO555 (Labcyte Inc.) into Greiner white 1536-well plates over the specified range: ADP-HPD (100 µM to 100 pM) and OA-ADP-HPD (500 µM to 30 nM).
# ADP-HPD and OA-ADP-HPD inhibition data were visualised in Prism (GraphPad), and IC50s derived from a non-linear regression analysis of the values from three separate experiments (run in triplicate) fit to a sigmoidal dose-response curve.
# hPARG4 (hPARG(448–976)) = target: T3, hPARG4 (hPARG(448–976)) (Homo sapiens, UniProt Q86W56); assay: Isothermal titration calorimetry; assay type: binding; settings: 25°C
# T3 construct: a codon optimized gene encoding human PARG(448–976) was synthesized by GeneArt; 6His (TEV-cleavable) (N, cleaved yes); made in house; host or cells: E. coli BL21 (DE3) GOLD
# Experimental: This was carried out using an iTC200 instrument (Microcal, GE Healthcare, Northampton, MA) at 25°C in the following buffer: 20 mM HEPES pH 7, 150 mM NaCl, 2 mM DTT, 0.02% NaN3. Protein concentrations were typically 30 µM in the cell with ligand concentrations of at least 10 fold this concentration in the syringe. Typical injection protocols of 19×2 µL injections, spaced at 2 or 3 minute intervals were used. Curves were fitted by non-linear regression analysis using a one-site binding model provided by MicroCal Origin software (version 7).
# [2] = Cell activity of PARG inhibitor (data not shown); assay type: cell-based
# T1 sequence (Q86W56 448-976): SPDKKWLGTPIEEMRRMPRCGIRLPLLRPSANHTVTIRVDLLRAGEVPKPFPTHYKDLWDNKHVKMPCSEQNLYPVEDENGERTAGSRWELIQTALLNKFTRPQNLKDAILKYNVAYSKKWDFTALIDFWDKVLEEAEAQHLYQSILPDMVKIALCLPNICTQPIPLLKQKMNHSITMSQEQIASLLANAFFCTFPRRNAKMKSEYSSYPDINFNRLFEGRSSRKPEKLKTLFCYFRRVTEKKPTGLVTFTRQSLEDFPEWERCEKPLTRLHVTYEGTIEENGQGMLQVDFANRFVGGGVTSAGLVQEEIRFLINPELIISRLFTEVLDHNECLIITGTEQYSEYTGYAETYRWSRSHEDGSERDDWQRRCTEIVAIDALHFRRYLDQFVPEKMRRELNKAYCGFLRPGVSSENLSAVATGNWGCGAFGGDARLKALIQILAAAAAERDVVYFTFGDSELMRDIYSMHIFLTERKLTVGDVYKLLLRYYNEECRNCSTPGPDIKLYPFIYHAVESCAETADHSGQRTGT
# T3 sequence (Q86W56 448-976): as above
# T2 sequence (Q86W56 whole entry): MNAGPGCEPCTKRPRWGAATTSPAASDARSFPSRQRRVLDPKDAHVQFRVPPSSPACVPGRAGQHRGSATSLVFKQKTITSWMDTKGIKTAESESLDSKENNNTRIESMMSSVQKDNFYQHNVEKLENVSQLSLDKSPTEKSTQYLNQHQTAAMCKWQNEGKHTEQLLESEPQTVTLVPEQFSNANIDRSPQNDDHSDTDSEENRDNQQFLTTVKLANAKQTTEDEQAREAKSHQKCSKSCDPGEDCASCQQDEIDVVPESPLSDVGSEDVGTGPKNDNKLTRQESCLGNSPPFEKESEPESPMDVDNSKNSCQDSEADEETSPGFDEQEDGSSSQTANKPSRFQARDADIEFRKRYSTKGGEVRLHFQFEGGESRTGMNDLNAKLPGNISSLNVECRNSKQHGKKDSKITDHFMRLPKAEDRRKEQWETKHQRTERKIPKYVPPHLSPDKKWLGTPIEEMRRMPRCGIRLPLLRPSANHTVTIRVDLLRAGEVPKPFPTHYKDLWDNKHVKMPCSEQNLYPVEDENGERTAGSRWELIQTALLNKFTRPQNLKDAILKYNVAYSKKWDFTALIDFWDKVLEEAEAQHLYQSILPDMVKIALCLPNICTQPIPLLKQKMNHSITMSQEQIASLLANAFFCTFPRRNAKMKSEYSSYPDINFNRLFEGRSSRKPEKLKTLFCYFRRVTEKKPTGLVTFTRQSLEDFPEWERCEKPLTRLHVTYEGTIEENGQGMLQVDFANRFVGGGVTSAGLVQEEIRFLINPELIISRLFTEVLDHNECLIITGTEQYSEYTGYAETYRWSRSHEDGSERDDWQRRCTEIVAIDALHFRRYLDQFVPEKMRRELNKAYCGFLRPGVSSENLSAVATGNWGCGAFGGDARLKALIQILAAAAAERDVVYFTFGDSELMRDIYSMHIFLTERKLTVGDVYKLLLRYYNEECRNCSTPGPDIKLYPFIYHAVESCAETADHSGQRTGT
structure (smiles),measurement,setting,value
"Nc1ncnc2c1ncn2C1OC(COP(=O)(O)OP(=O)(O)OCC2OC(O)C(O)C2O)C(O)C1O (centres unmarked) [ADPR, ADP-ribose]",weaker affinity relative to ADP-HPD,"hPARG4; binding to hPARG, compared with ADP-HPD",~1000 fold
same,Kd,"hPARG4; hPARG4-ADP-HPD complex formed in situ, increasing concentrations of compound, data not shown, read-out: KD (SPR competition)",~40 µM
same,Kd,bPARG,120 µM
same,decrease in affinity versus wild-type,TcPARG Glu114Ala mutant,No detectable activity; 10-fold decrease in ADPR affinity
same,effect of mutation on affinity,TcPARG Glu115Ala mutant,No detectable activity; no effect on ADPR affinity
Nc1ncnc2c1ncn2[C@@H]1O[C@H](COP(=O)(O)O)[C@@H](O)[C@H]1O [AMP],drop-off in affinity upon removal of the β-phosphate-ribose moiety,hPARG4; AMP compared with ADPR,10 fold
same,Kd,"hPARG4; same competition-based method as for ADPR, n = 1, read-out: approximate KD (SPR competition)",~380 µM
"CCCCCCCCNc1nc2c(N)ncnc2n1[C@@H]1O[C@H](COP(=O)(O)OP(=O)(O)OC[C@H]2NC[C@H](O)[C@@H]2O)[C@@H](O)[C@H]1O [OA-ADP-HPD, 8-n-octyl-amino-ADP-HPD]",completeness of inhibition of hPARG activity in vitro,"[1]; compared with ADP-HPD, used as maximally-inhibited control in HTS assay",more complete inhibitor
same,IC50,"[1]; hPARG, HTS campaign format, 3 µL reaction, 1536-well, 10 min, read-out: IC50",16.3 ± 1.1 µM
same,Kd,hPARG4 (hPARG(448–976)); read-out: KD (ITC),0.8 ± 0.1 µM
same,ΔG,hPARG4 (hPARG(448–976)); ITC,-8.34 ± 0.072 kcal/mol
same,ΔH,hPARG4 (hPARG(448–976)); ITC,-12.1 ± 0.335 kcal/mol
same,ΔS,hPARG4 (hPARG(448–976)); ITC,−52.9±4.7 J/mol/K
same,cell activity,[2],unable to show cell activity
